Experimental data taken from patent US8648081B2 (Eli Lilly and Company, priority 2011, dated 2014).

The molecules below were run on Lone star tick larvae (Amblyomma americanum) (assay: In Vitro Larval Immersion Microassay (LIM)). Conditions: read-out: % Efficacy (percent larval mortality).
Description: In Vitro Larval Immersion Microassay (LIM)
The larval immersion microassay may be conducted as described in White, et al., J. Med. Entomol. […] Briefly, experimental test articles are formulated in dimethylsulfoxide (DMSO) to prepare a stock solution at a concentration of 10 mM. […] Approximately 30-50 Lone star tick larvae (Amblyomma americanum) are submerged into each well containing experimental test articles. After a 30 minute immersion period, larvae are removed with a wide-bore pipette tip in 0.05 ml of fluid, dispensed into a commercial paper tissue biopsy bag which is sealed at the top with a plastic dialysis clip, inverted and allowed to air dry for 60 minutes. Bags containing larvae are then incubated at approximately 27 degrees Celsius and >90% relative humidity. After 24 hours, bags are opened, live and dead larvae are counted and percent larval mortality is calculated as follows: % Efficacy=(# dead larvae)/(# total larvae)×100.

Structure (SMILES)	mortality at 300 µM
FC(F)(F)C1(c2cc(Cl)cc(Cl)c2)CC(c2cc3ccncc3s2)=NO1 (stereo not shown) [Example 230, 2-[5-(3,5-Dichloro-phenyl)-5-tri-fluoromethyl-4,5-dihydro-isoxazol-3-yl]-thieno[2,3-c] pyridine]	≥ 80%
O=C(NC1CCS(=O)(=O)CC1)c1sc(C2=NOC(c3cc(Cl)c(F)c(Cl)c3)(C(F)(F)F)C2)c2c1CCCC2 (stereo not shown) [Example 80, 3-[5-(3,5-Dichloro-4-fluoro-phenyl)-5-trifluoromethyl-4,5-dihydro-isoxazol-3-yl]-4,5,6,7-tetrahydro-benzo[c] thiophene-1-carboxylic acid (1,1-dioxo-hexahydro-thiopyran-4-yl)-amide]	≥ 80%
N#CCNC(=O)CNC(=O)c1sc(C2=NOC(c3cc(Cl)c(Cl)c(Cl)c3)(C(F)(F)F)C2)c2c1CCC2 (stereo not shown) [Example 54, N-(2-(cyanomethyl-amino)-2-oxoethyl)-3-(5-(3,4,5-trichloro-phenyl)-5-(trifluoro-methyl)-4,5-dihydro-isoxazol-3-yl)-5,6-dihydro-4H-cyclo-penta[c]thiophene-1-carboxamide]	≥ 80%
FC(F)(F)C1(c2cc(Cl)cc(Cl)c2)CC(c2cc3cccnc3s2)=NO1 (stereo not shown) [Example 232, 2-[5-(3,5-Dichloro-phenyl)-5-tri-fluoromethyl-4,5-dihydro-isoxazol-3-yl]-thieno[2,3-b] pyridine]	≥ 80%
O=C(CNC(=O)c1sc(C2=NOC(c3cc(Cl)cc(Cl)c3)(C(F)(F)F)C2)c2c1CCCC2)NCC(F)(F)F (stereo not shown) [Example 62, 3-(5-(3,5-dichloro-phenyl)-5-(trifluoro-methyl)-4,5-dihydro-isoxazol-3-yl)-N-(2-oxo-2-(2,2,2-trifluoroethylamino)ethyl)-4,5,6,7-tetrahydrobenzo[c] thiophene-1-carboxamide]	≥ 80%
N#CCNC(=O)CNC(=O)c1sc(C2=NOC(c3cc(Cl)c(F)c(Cl)c3)(C(F)(F)F)C2)c2c1CCC2 (stereo not shown) [Example 59, N-(2-(cyanomethyl-amino)-2-oxoethyl)-3-(5-(3,5-dichloro-4-fluorophenyl)-5-(trifluoromethyl)-4,5-dihydroisoxazol-3-yl)-5,6-dihydro-4H-cyclopenta[c] thiophene-1-carboxamide]	≥ 80%
O=C(NC1CCOCC1)c1sc(C2=NOC(c3cc(Cl)c(F)c(Cl)c3)(C(F)(F)F)C2)c2c1CCCC2 (stereo not shown) [Example 83, 3-(5-(3,5-dichloro-4-fluorophenyl)-5-(trifluoromethyl)-4,5-dihydro-isoxazol-3-yl)-N-(tetrahydro-2H-pyran-4-yl)-4,5,6,7-tetrahydro-benzo[c]thiophene-1-carboxamide]	≥ 80%
FC(F)(F)C1(c2cc(Cl)cc(Cl)c2)CC(c2cc3cc(Cl)ccc3s2)=NO1 (stereo not shown) [Example 237, 3-(5-chlorobenzo [b]thiophen-2-yl)-5-(3,5-dichloro-phenyl)-5-(trifluoro-methyl)-4,5-dihydroisoxazole]	≥ 80%
O=C(CNC(=O)c1sc(C2=NOC(c3cc(Cl)c(F)c(Cl)c3)(C(F)(F)F)C2)c2c1CCCC2)NCC(F)(F)F (stereo not shown) [Example 48, 3-(5-(3,5-dichloro-4-fluorophenyl)-5-(trifluoromethyl)-4,5-dihydroisoxazol-3-yl)-N-(2-oxo-2-(2,2,2-trifluoroethyl-amino)ethyl)-4,5,6,7-tetrahydrobenzo [c]thiophene-1-carboxamide]	≥ 80%
O=C(NC1CCN(CC(F)(F)F)C1=O)c1sc(C2=NOC(c3cc(Cl)cc(Cl)c3)(C(F)(F)F)C2)c2c1CCC2 (stereo not shown) [Example 86, 3-(5-(3,5-dichloro-phenyl)-5-(trifluoro-methyl)-4,5-dihydro-isoxazol-3-yl)-N-(2-oxo-1-(2,2,2-trifluoroethyl)pyrrolidin-3-yl)-5,6-dihydro-4H-cyclopenta[c] thiophene-1-carboxamide]	≥ 80%
CCNC(=O)CNC(=O)c1sc(C2=NOC(c3cc(Cl)cc(Cl)c3)(C(F)(F)F)C2)c2c1CCCC2 (stereo not shown) [Example 63, 3-(5-(3,5-dichloro-phenyl)-5-(trifluoro-methyl)-4,5-dihydro-isoxazol-3-yl)-N-(2-(ethylamino)-2-oxoethyl)-4,5,6,7-tetrahydrobenzo [c]thiophene-1-carboxamide]	≥ 80%
O=C(NC1CCS(=O)(=O)CC1)c1sc(C2=NOC(c3cc(Cl)cc(Cl)c3)(C(F)(F)F)C2)c2c1CCCC2 (stereo not shown) [Example 39, 3-[5-(3,5-Dichloro-phenyl)-5-trifluoro-methyl-4,5-dihydro-isoxazol-3-yl]-4,5,6,7-tetrahydro-benzo [c]thiophene-1-carboxylic acid (1,1-dioxo-hexahydro-116-thiopyran-4-yl)-amide]	≥ 80%
FC(F)(F)C1(c2cc(Cl)cc(Cl)c2)CC(c2cc3cc(Br)cnc3s2)=NO1 (stereo not shown) [Example 231, 5-Bromo-2-[5-(3,5-dichloro-phenyl)-5-trifluoromethyl-4,5-dihydro-isoxazol-3-yl]-thieno[2,3-b]pyridine]	≥ 80%
O=C(NC1CCN(C2CC2)C1=O)c1sc(C2=NOC(c3cc(Cl)c(F)c(Cl)c3)(C(F)(F)F)C2)c2c1CCCC2 (stereo not shown) [Example 84, N-(1-cyclopropyl-2-oxopyrrolidin-3-yl)-3-(5-(3,5-dichloro-4-fluorophenyl)-5-(trifluoromethyl)-4,5-dihydroisoxazol-3-yl)-4,5,6,7-tetra-hydrobenzo[c] thiophene-1-carboxamide]	≥ 80%
O=C(NC1CCN(CC(F)(F)F)C1=O)c1sc(C2=NOC(c3cc(Cl)c(F)c(Cl)c3)(C(F)(F)F)C2)c2c1CCC2 (stereo not shown) [Example 60, 3-(5-(3,5-dichloro-4-fluorophenyl)-5-(trifluoromethyl)-4,5-dihydroisoxazol-3-yl)-N-(2-oxo-1-(2,2,2-trifluoroethyl)pyrrolidin-3-yl)-5,6-dihydro-4H-cyclopenta[c] thiophene-1-carboxamide]	≥ 80%
FC(F)(F)C1(c2cc(Cl)cc(Cl)c2)CC(c2cc3ccccc3s2)=NO1 (stereo not shown) [Example 233, 3-(benzo[b]thio-phen-2-yl)-5-(3,5-dichlorophenyl)-5-(trifluoromethyl)-4,5-dihydroisoxazole]	≥ 80%
O=C1CCC(NC(=O)c2sc(C3=NOC(c4cc(Cl)c(F)c(Cl)c4)(C(F)(F)F)C3)c3c2CCCC3)CC1 (stereo not shown) [Example 81, 3-(5-(3,5-dichloro-4-fluorophenyl)-5-(trifluoromethyl)-4,5-dihydroisoxazol-3-yl)-N-(4-oxocyclohexyl)-4,5,6,7-tetrahydrobenzo [c]thiophene-1-carboxamide]	≥ 80%
C#CCNC(=O)CNC(=O)c1sc(C2=NOC(c3cc(Cl)c(F)c(Cl)c3)(C(F)(F)F)C2)c2c1CCC2 (stereo not shown) [Example 61, 3-(5-(3,5-dichloro-4-fluorophenyl)-5-(trifluoromethyl)-4,5-dihydroisoxazol-3-yl)-N-(2-oxo-2-(prop-2-ynylamino)ethyl)-5,6-dihydro-4H-cyclopenta[c] thiophene-1-carboxamide]	≥ 80%

Same assay, conditions: tested at 300 micromolar, 30 minute immersion, mortality counted after 24 hours, read-out: % Efficacy (percent larval mortality)

Structure (SMILES)	mortality at 300 µM
N#CCNC(=O)CNC(=O)c1sc(C2=NOC(c3sc(Cl)c(Cl)c3Cl)(C(F)(F)F)C2)c2c1CCCC2 (stereo not shown) [Example 96, N-(2-(cyanomethylamino)-2-oxoethyl)-3-(5-(3,4,5-trichlorothiophen-2-yl)-5-(trifluoromethyl)-4,5-dihydroisoxazol-3-yl)-4,5,6,7-tetrahydro-benzo[c]thiophene-1-carboxamide]	≥ 80%
